Read-outs that look alike come from different tables or passages of the source.
Columns and labels:
[1] = test system: Megakaryocyte Colony Formation; assay: Megakaryocyte Colony Formation-Stimulating Activity; format: cell-based, Balb/c mouse; conditions: IL-3 present, 7 days culture, relative to control (IL-3 alone) = 100
Description: An eight-week-old Balb/c mouse was killed. Its femurs and cervical vertebrae were taken out and both ends thereof were cut off. Bone marrow cells were collected from the pieces cut off from the femurs and cervical vertebrae using a syringe containing IMDM (430-2200EA manufactured by Gibco Co.), and blown into a test tube. The test tube was allowed to stand for 5 minutes, and the supernatant was collected with a pipet. Each of the test compounds at various concentrations was separately added to a separate reaction mixture corltaining the bone marrow cells (50,000 cells), bovine serum albumin (2%: A4508, manufactured by Sigma Co.), transferrin (600 μg/ml: 652202, manufactured by Boehringer Mannheim Co.), IL-3 (100 U/ml) , cholesterol (16 μg/ml: 036-0641, manufactured by Wako Co.) and agar (0.6%: 0142-02, manufactured by Difco Laboratories);Then, 1 ml each of the mixtures was put into a 35-mm dishes (manufactured by Lux Co.); and cultured at 37° C., 5% CO2, and relative humidity of not less than 95%, for 7 days. A control was prepared by adding IL-3 alone to the bone marrow cells. After the completion of the culturing, the resultant agar was dried by using filter paper (1001-055, manufactured by Whatman Co.), fixed with 2.5% glutaraldehyde, followed by acetylcholinesterase staining (ACHE staining).
ACHE staining was carried out according to the following method:
ACHE staining: To each sample was added a solution containing 0.67 mg/ml acetylthiocholine iodide, 2.94 mg/ml sodium citrate, 7.5 mg/ml copper (II) sulfate, and 1.65 mg/ml potassium ferricyanide. Then, the mixture was allowed to stand at room temperature in the dark for 4 to 6 hours.
A group of 4 or more megakaryocytes which were stained reddish brown was regarded as one colony, and the number of colonies per dish was calculated using a microscope.
The results are shown in Table 5 as values relative to the control. (In the table, the relative values were calculated on the basis of the control defined as 100).

Platelet Production = assay: Platelet Production-Stimulating Activity in Mice; format: in vivo; conditions: Mus musculus, 360 h, male Balb/c mice, 15th day, control = 100, read-out: Ratio of increase (number of platelets, A/B×100); for response vs control in vivo at 50 mg/kg: 50 mg/kg i.p. once a day for 5 days
Description: A test compound was intraperitoneally (i. p.) or subcutaneously (s. c.) administered to 7-week-old male Balb/c mice once a day for consecutive 5 days (test group, 4 mice per group). A control group (4 mice per group) was administered only a solvent (5% Tween 80/water) alone. On the 15th day from the start of the administration, blood was collected from the fundus oculi vein of each mouse, and the number of platelets was counted with a micro counter (Model CC-180A, manufactured by Toa Iryo Denshi Co.). The rate (%) of increase in the number of platelets in the test group which had been administered test compounds over the control group was calculated according to the following formula to evaluate the effect of the test compound.
[Ratio of increase]=A/B×100
A: the number of platelets in the test group
B: the number of platelets in the control group

[2] = sc, free base, 10 mg/kg s.c. once a day for 5 days
[3] = sc, 10 mg/kg s.c. once a day for 5 days

O=C1c2c(-c3ccccc3[N+](=O)[O-])cc3[nH]c4ccccc4c3c2C(=O)N1Cc1ccccc1 [Compound 1]
Rel. Value (megakaryocyte colony formation, control defined as 100) ([1]; 1 nM): 147

Nc1ccccc1-c1cc2[nH]c3ccccc3c2c2c1C(=O)N(Cc1ccccc1)C2=O [Compound 5]
Rel. Value (megakaryocyte colony formation, control defined as 100) ([1]; 1 nM): 117 | response vs control in vivo at 50 mg/kg (Platelet Production; ip): 111%

CN1C(=O)c2c(-c3ccccc3[N+](=O)[O-])cc3[nH]c4ccccc4c3c2C1=O [Compound 10]
Rel. Value (megakaryocyte colony formation, control defined as 100) ([1]; 1 nM): 120

CN1C(=O)c2c(-c3ccccc3N)cc3[nH]c4ccccc4c3c2C1=O [Compound 11]
Rel. Value (megakaryocyte colony formation, control defined as 100) ([1]; 10 nM): 128

CN1C(=O)c2c(-c3ccccc3N)cc3c(c2C1=O)c1ccccc1n3Cc1ccc(N)cc1 [Compound 17]
Rel. Value (megakaryocyte colony formation, control defined as 100) ([1]; 1 nM): 123

CN(C)CCCn1c2ccccc2c2c3c(c(-c4ccccc4[N+](=O)[O-])cc21)C(=O)N(C)C3=O [Compound 24]
Rel. Value (megakaryocyte colony formation, control defined as 100) ([1]; 1 nM): 125 | response vs control in vivo at 10 mg/kg (Platelet Production; ip, 10 mg/kg i.p. once a day for 5 days): 125%

CN(C)CCCn1c2ccccc2c2c3c(c(-c4ccccc4N(C)C)cc21)C(=O)N(C)C3=O [Compound 26]
Rel. Value (megakaryocyte colony formation, control defined as 100) ([1]; 10 nM): 110

CN1C(=O)c2c(-c3ccccc3[N+](=O)[O-])cc3c(c2C1=O)c1ccccc1n3CCCCN1CCOCC1 [Compound 34]
Rel. Value (megakaryocyte colony formation, control defined as 100) ([1]; 0.1 nM): 114

CN(C)CCCn1c2ccccc2c2c3c(c(-c4ccccc4NCCN(C)C)cc21)C(=O)N(C)C3=O [Compound 36]
Rel. Value (megakaryocyte colony formation, control defined as 100) ([1]; 10 nM): 149

CN1C(=O)c2c(-c3ccccc3NCCO)cc3c(c2C1=O)c1ccccc1n3C [Compound 37]
Rel. Value (megakaryocyte colony formation, control defined as 100) ([1]; 1 nM): 130

CN(C)CCNc1ccccc1-c1cc2c(c3c1C(=O)N(C)C3=O)c1ccccc1n2C [Compound 40]
Rel. Value (megakaryocyte colony formation, control defined as 100) ([1]; 1 nM): 138 | response vs control in vivo at 50 mg/kg (Platelet Production; ip): 174%

CN(C)CCCNc1ccccc1-c1cc2c(c3c1C(=O)N(C)C3=O)c1ccccc1n2C [Compound 51]
Rel. Value (megakaryocyte colony formation, control defined as 100) ([1]; 10 nM): 141

CN(C)CC(=O)Nc1ccccc1-c1cc2c(c3c1C(=O)N(C)C3=O)c1ccccc1n2C [Compound 56]
Rel. Value (megakaryocyte colony formation, control defined as 100) ([1]; 1 nM): 116

CCN(CC)CCC(=O)Nc1ccccc1-c1cc2c(c3c1C(=O)N(C)C3=O)c1ccccc1n2C [Compound 60]
Rel. Value (megakaryocyte colony formation, control defined as 100) ([1]; 1 nM): 110

CN(C)CCOc1ccccc1-c1cc2c(c3c1C(=O)N(C)C3=O)c1ccccc1n2C [Compound 66]
Rel. Value (megakaryocyte colony formation, control defined as 100) ([1]; 10 nM): 119 | response vs control in vivo at 50 mg/kg (Platelet Production; ip): 206%

CN(C)CCNc1ccc([N+](=O)[O-])cc1-c1cc2c(c3c1C(=O)N(C)C3=O)c1ccccc1n2C [Compound 79]
response vs control in vivo at 25 mg/kg (Platelet Production; ip, 25 mg/kg i.p. once a day for 5 days): 180%

CN(C)CCNc1ccc(Br)cc1-c1cc2c(c3c1C(=O)N(C)C3=O)c1ccccc1n2C [Compound 82]
Rel. Value (megakaryocyte colony formation, control defined as 100) ([1]; 10 nM): 119

CN(C)CCn1c(=O)c2c(c3c(c4c5ccccc5n(C)c42)C(=O)N(C)C3=O)c2ccccc21 [Compound 93]
Rel. Value (megakaryocyte colony formation, control defined as 100) ([1]; 0.1 nM): 119 | response vs control in vivo at 50 mg/kg (Platelet Production; ip): 176%

CC(CN(C)C)Oc1ccccc1-c1cc2c(c3c1C(=O)N(C)C3=O)c1ccccc1n2C (stereo not shown) [Compound 102]
Rel. Value (megakaryocyte colony formation, control defined as 100) ([1]; 1 nM): 142 | response vs control in vivo at 10 mg/kg (Platelet Production; [2]): 123%

CN(C)CCOc1ccc(Br)cc1-c1cc2c(c3c1C(=O)N(C)C3=O)c1ccccc1n2C [Compound 130]
response vs control in vivo at 10 mg/kg (Platelet Production; [2]): 295%

CN(C)CCOc1ccc(OCc2ccccc2)cc1-c1cc2c(c3c1C(=O)N(C)C3=O)c1ccccc1n2C [Compound 147]
response vs control in vivo at 10 mg/kg (Platelet Production; [3]): 154%

CN(C)CCOc1ccc(C=O)cc1-c1cc2c(c3c1C(=O)N(C)C3=O)c1cc(Br)ccc1n2C [Compound 160]
Rel. Value (megakaryocyte colony formation, control defined as 100) ([1]; 10 nM): 120 | response vs control in vivo at 10 mg/kg (Platelet Production; [3]): 117%

CN(C)CCOc1ccc(N(C)C)cc1-c1cc2c(c3c1C(=O)N(C)C3=O)c1ccccc1n2C [Compound 170]
Rel. Value (megakaryocyte colony formation, control defined as 100) ([1]; 1 nM): 125 | response vs control in vivo at 10 mg/kg (Platelet Production; [3]): 138%

CN(C)CCOc1ccccc1-c1cc2c(c3c1C(=O)N(C)C3=O)c1cc(C=O)ccc1n2C [Compound 177]
Rel. Value (megakaryocyte colony formation, control defined as 100) ([1]; 10 nM): 120

CC(=O)c1ccc2c(c1)c1c3c(c(-c4ccccc4OCCN(C)C)cc1n2C)C(=O)N(C)C3=O [Compound 180]
response vs control in vivo at 10 mg/kg (Platelet Production; [3]): 189%

CN(C)CCOc1c(N)cccc1-c1cc2c(c3c1C(=O)N(C)C3=O)c1ccccc1n2C [Compound 203]
response vs control in vivo at 10 mg/kg (Platelet Production; [3]): 146%

Reference: US5728709A, “Alkyl and aralkyl-substituted pyrrolocarbazole derivatives that stimulate platelet production” (Kyowa Hakko Kogyo Co., Ltd., priority 1995, dated 1998)
